In ChEMBL document CHEMBL1132432, “Urea-PETT compounds as a new class of HIV-1 reverse transcriptase inhibitors. 3. Synthesis and further structure-activity relationship studies of PETT analogues” (J Med Chem, 1999):

Tests used:
[1] = target: T1, Human immunodeficiency virus type 1 reverse transcriptase (Human immunodeficiency virus 1, UniProt Q72547); assay: HIV-1 reverse transcriptase inhibitory activity against Wild Type Reverse transcriptase using (poly)rC600*(oligo)dGT as template primer.
[2] = target: T1, Human immunodeficiency virus type 1 reverse transcriptase; assay: HIV-1 reverse transcriptase inhibitory activity against Asn103 mutant using (poly)rC600*(oligo)dGT as template primer.
[3] = target: Human immunodeficiency virus type 1 reverse transcriptase (Human immunodeficiency virus 1) (UniProt Q72547); settings: MT4
Description: Inhibitory activity against HIV-1 Asn 103 mutant in MT-4 cells.

[4] = target: Human immunodeficiency virus type 1 reverse transcriptase (Human immunodeficiency virus 1) (UniProt Q72547); settings: MT4; remark: listed apart in the source
Description: Inhibitory activity against HIV-1 Cys 181 mutant in MT-4 cells.

[5] = target: T1, Human immunodeficiency virus type 1 reverse transcriptase; assay: HIV-1 reverse transcriptase inhibitory activity against Ile 100 mutant using (poly)rC600*(oligo)dGT as template primer.
[6] = target: Human immunodeficiency virus type 1 reverse transcriptase (Human immunodeficiency virus 1) (UniProt Q72547); settings: MT4; remark: listed apart in the source
Description: Inhibitory activity against HIV-1 Ile 100 mutant in MT-4 cells.

[7] = target: Human immunodeficiency virus type 1 reverse transcriptase (Human immunodeficiency virus 1) (UniProt Q72547); settings: MT4; remark: listed apart in the source
Description: Inhibition of wild type HIV-1 in MT-4 cell culture (human T cell line)

[8] = target: T1, Human immunodeficiency virus type 1 reverse transcriptase; assay: HIV-1 reverse transcriptase inhibitory activity against Cys181 mutant using (poly)rC600*(oligo)dGT as template primer.
MT4 = assay: Inhibitory activity against HIV-1 Wild Type in MT-4 cell culture (human T-cell line with 50% human AB serum); assay type: functional; settings: read-out: ED50 (the source's name)

SMILES | IC50 [1] [nM] | IC50 [2] [nM] | ED50 [3] [nM] | ED50 [4] [nM] | IC50 [5] [nM] | ED50 [6] [nM] | ED50 [7] [nM] | IC50 [8] [nM] | EC50 (MT4; Homo sapiens, MT4) [nM] | EC50 (MT4) [nM]
CCC(=O)c1ccc(F)c(C2CC2NC(=O)Nc2ccc(C#N)cn2)c1O (stereo not drawn) | 6.8 | 97 | 137 | 46 | 32 | 69 | 3 | 16 |  | 
CCOc1ccc(F)c(CCNC(=O)Nc2ccc(Br)cn2)c1Cl |  | > 2400 | > 5000 | > 5000 | 1680 | > 10000 | 70 | 240 |  | 
CCC(=O)c1ccc(F)c(C2CC2NC(=O)Nc2ccc(Br)cn2)c1O (stereo in doubt; 18) [listing 1 of 2 here] |  |  | 358 | 95 |  | 53 | 12 |  |  | 
CCC(=O)c1ccc(F)c(C2CC2NC(=O)Nc2ccc(Cl)cn2)c1O (stereo in doubt; 19) [listing 1 of 2 here] |  |  | 200 | 100 |  | 100 | 9 |  |  | 
COc1ccc2c(c1)N(C(=O)OC(C)C)C(CSC)C(S)=N2 (stereo not drawn) | 8 | 56 | 500 | 73 | 9 | 72 | 9 | 9 | 320 | 
CCOc1ccc(Cl)c(C2CC2NC(=O)Nc2ccc(Cl)cn2)c1F (stereo not drawn) | 1.3 | 237 | 780 | 104 | 52 | 139 | 9 | 21 |  | 
COc1c(C(C)=O)ccc(F)c1CCNC(=O)Nc1ccc(Cl)cn1 | 224 | > 2700 | > 5000 | > 5000 | 26200 | > 5000 | 819 | 12700 |  | 
CCC(=O)c1ccc(F)c(C2CC2NC(=O)Nc2ccc(Cl)cn2)c1O (stereo in doubt; 20) [listing 1 of 2 here] |  |  | 470 | 100 |  | 75 | 13 |  |  | 
CCC(=O)c1ccc(F)c(C2CC2NC(=O)Nc2ccc(Cl)cn2)c1O (stereo in doubt; 20) [listing 2 of 2 here] | 2.7 | 77 |  |  | 14 |  |  | 4 |  | 80
CCOc1ccc(Cl)c(C2CC2NC(=O)Nc2cc(Cl)cnn2)c1F (stereo not drawn) | 5.2 | > 2600 | > 5000 | > 5000 | 1000 | > 5000 | 18 | 1000 |  | 
CCOc1ccc(F)c(C2CC2NC(=O)Nc2cc(Cl)cnn2)c1Cl (stereo not drawn) | 16 | > 2600 | > 5000 | 2300 | 140 | 4400 | 78 | 260 |  | 
CC(=O)c1ccc(F)c(C2CC2NC(=O)Nc2ccc(Br)cn2)c1O (stereo not drawn) | 3.5 | 70 | 561 | 113 | 18 | 50 | 21 | 8 |  | 
CCOc1ccc(Cl)c(C2CC2NC(=O)Nc2ccc(C#N)cn2)c1F (stereo not drawn) | 2.7 | 192 | 400 | 200 | 27 | 53 | 4 | 20 |  | 
CN(C)c1ccc(F)c(CCNC(=O)Nc2ccc(Br)cn2)c1F |  | > 2500 | > 20000 | > 20000 | > 2500 | > 20000 | 500 | 1500 |  | 
CC(=O)c1ccc(F)c(C2CC2NC(=O)Nc2ccc(C#N)cn2)c1O (stereo not drawn) | 5.3 | 98 | 104 | 230 | 13 | 40 | 8 | 16 |  | 
CCC(=O)c1ccc(F)c(C2CC2NC(=O)Nc2ccc(Cl)cn2)c1O (stereo in doubt; 19) [listing 2 of 2 here] | 3.2 | 82 |  |  | 115 |  |  | 19 | 51 | 
Cc1ccnc2c1NC(=O)c1cccnc1N2C1CC1 [NEVIRAPINE] |  |  |  |  |  |  |  |  | > 5000 | 
CCC(=O)c1ccc(F)c(C2CC2NC(=O)Nc2ccc(Cl)cn2)c1O (stereo in doubt; 13) [listing 1 of 2 here] |  |  | 350 | 340 |  | 220 | 27 |  |  | 
CCOc1ccc(F)c(C2CC2NC(=O)Nc2ccc(Cl)cn2)c1F (stereo not drawn) | 1.6 | 473 | 544 | 163 | 81 | 816 | 31 | 14 |  | 
O=C(Nc1ccc(Cl)cn1)NC1CC1c1c(F)ccc(O)c1Cl (stereo not drawn) | 135 | > 2700 | > 5000 | > 5000 | 4100 | > 5000 | 110 | 4300 |  | 
COc1ccc(C(C)=O)c(F)c1CCNC(=O)Nc1ccc(Cl)cn1 | 109 | > 2700 | 3280 | > 20000 | 11200 | > 20000 | 273 | 10100 |  | 
CC(C)Nc1cccnc1N1CCN(C(=O)c2cc3cc(NS(C)(=O)=O)ccc3[nH]2)CC1 [DELAVIRDINE] |  |  |  |  |  |  |  |  | 320 | 
COc1ccc(OC)c(CCNC(=O)Nc2ccc(Cl)cn2)c1F |  | 224 | 1130 | > 5000 | 140 | 3800 | 28 | 140 |  | 
CCC(=O)c1ccc(F)c(C2CC2NC(=O)Nc2ccc(Cl)cn2)c1O (stereo in doubt; 13) [listing 2 of 2 here] | 9 | 57 |  |  | 76 |  |  | 51 |  | 
CCOc1ccc(F)c(C2CC2NC(=O)Nc2ccc(C#N)cn2)c1Cl (stereo not drawn) | 4.3 | 183 | > 5000 | 270 | 200 | 234 | 8 | 130 |  | 
CCC(=O)c1ccc(F)c(C2CC2NC(=O)Nc2ccc(Br)cn2)c1O (stereo in doubt; 17) [listing 1 of 2 here] |  |  | 80 | 69 |  | 100 | 8 |  |  | 
O=C1Nc2ccc(Cl)cc2[C@@](C#CC2CC2)(C(F)(F)F)O1 [EFAVIRENZ] |  |  |  |  |  |  |  |  | 50 | 
CCC(=O)c1ccc(F)c(C2CC2NC(=O)Nc2ccc(Br)cn2)c1O (stereo in doubt; 17) [listing 2 of 2 here] | 3.8 | 83 |  |  | 171 |  |  | 16 | 58 | 
CCC(=O)c1ccc(F)c(C2CC2NC(=O)Nc2ccc(Br)cn2)c1O (stereo in doubt; 18) [listing 2 of 2 here] | 4.8 | 41 |  |  | 14 |  |  | 10 |  | 56
